{
  "source": "patent US7629439B2",
  "about": "“Peptides derived from the protein MMP-2, and the use thereof in antitumoral immunotherapy” (INSERM (Institut National de la Sante et de la Recherche …, priority 2003, dated 2009)",
  "system": "T2 cells",
  "experiment": "51Cr release: sensitization of T2 cells to lysis by CTL clone M134.12",
  "format": "cell-based",
  "conditions": "51Cr-labeled T2 cells, 60 minutes at 37° C. with peptide, effector/target ratio 10/1, 4 hours; compared among four peptides (FIG. 4)",
  "experimental": "These peptides were used to sensitize T2 cells labeled with ^51Cr. These cells were incubated for 60 minutes at 37° C. with various concentrations of each of the peptides to be tested. CTL M134.12 effector cells were then added at an effector cell/target cell ratio of 10/1. The amount of ^51Cr released into the supernatant is measured 4 hours later.\nAlong the y-axis, the percentage specific lysis.\nAlong the x-axis, the concentration of peptide LGLPPDVQRV (●) (SEQ ID NO: 2), GLPPDVQRV (▪) (SEQ ID NO: 1), LPPDVQRV (▴) (SEQ ID NO: 3), or GLPPDVQR(X) (SEQ ID NO: 4) in nM.",
  "data": [
    {"sequence": "GLPPDVQRV (listed as Homo sapiens) [peptide derived from region 556-593 of the MMP-2 protein, presented by HLA-A*0201]", "values": [
      {"measurement": "sensitizing T2 cells to lysis by the CTL clone M134.12 (percentage specific lysis)", "value": "most effective"}
    ]}
  ]
}
